According to patent US9725465B2, “Biaryl acetamide compounds and methods of use thereof” (Ambit Biosciences Corporation, priority 2013, dated 2017):

Tests used:
KIT kinase = KIT kinase (Homo sapiens (Human), UniProt P10721); assay: Competition binding assay (Kd), KIT; conditions: competition binding assay
Outline: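 Kd derived from eleven-point threefold serial dilutions of compound competing with bead-bound ligand for kinase; bound kinase eluted and measured by quantitative PCR. Kinase supplied either as a T7 phage fusion or expressed in HEK-293 cells with a DNA tag; DMSO served as control.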

FLT3-ITD = FLT3-ITD (Homo sapiens (Human), UniProt P36888, INS600HVDFREYEYD); assay: pFLT3 MSD assay, Ba/F3 FLT3-ITD; type: cell-based; conditions: Ba/F3 FLT3-ITD cells, 2 hours, read-out: BaF3-FLT3-ITD pFlt3 IC50
FLT3 kinase = FLT3 kinase (Homo sapiens (Human), UniProt P36888); assay: Competition binding assay (Kd), FLT3; conditions: competition binding assay
FLT3 kinase, sequence (P36888 27-993): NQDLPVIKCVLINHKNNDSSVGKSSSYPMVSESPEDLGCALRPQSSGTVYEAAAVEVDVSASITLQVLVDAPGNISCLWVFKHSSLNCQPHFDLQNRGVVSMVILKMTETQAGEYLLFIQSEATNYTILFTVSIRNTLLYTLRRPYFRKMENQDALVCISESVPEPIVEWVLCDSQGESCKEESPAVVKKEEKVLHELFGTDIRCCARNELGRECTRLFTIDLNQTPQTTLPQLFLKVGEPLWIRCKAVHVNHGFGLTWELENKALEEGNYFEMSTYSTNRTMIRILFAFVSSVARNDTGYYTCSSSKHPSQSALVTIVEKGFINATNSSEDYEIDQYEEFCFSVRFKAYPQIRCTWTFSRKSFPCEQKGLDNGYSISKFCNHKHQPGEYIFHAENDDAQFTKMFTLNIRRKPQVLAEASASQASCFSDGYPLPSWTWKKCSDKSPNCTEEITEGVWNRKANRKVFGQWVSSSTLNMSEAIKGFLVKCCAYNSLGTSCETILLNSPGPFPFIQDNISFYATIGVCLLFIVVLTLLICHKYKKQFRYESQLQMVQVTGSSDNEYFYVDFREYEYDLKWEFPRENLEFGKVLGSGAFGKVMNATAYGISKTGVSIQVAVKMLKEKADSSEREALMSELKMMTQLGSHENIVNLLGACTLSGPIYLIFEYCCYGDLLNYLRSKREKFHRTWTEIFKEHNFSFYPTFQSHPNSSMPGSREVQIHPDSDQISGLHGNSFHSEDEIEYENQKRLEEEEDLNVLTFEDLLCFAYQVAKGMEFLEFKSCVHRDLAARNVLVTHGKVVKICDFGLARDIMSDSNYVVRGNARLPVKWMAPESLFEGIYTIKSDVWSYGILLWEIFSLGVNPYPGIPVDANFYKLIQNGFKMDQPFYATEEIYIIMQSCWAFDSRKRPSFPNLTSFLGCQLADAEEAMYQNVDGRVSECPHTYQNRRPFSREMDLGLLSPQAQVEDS

KIT kinase, sequence (P10721 26-976): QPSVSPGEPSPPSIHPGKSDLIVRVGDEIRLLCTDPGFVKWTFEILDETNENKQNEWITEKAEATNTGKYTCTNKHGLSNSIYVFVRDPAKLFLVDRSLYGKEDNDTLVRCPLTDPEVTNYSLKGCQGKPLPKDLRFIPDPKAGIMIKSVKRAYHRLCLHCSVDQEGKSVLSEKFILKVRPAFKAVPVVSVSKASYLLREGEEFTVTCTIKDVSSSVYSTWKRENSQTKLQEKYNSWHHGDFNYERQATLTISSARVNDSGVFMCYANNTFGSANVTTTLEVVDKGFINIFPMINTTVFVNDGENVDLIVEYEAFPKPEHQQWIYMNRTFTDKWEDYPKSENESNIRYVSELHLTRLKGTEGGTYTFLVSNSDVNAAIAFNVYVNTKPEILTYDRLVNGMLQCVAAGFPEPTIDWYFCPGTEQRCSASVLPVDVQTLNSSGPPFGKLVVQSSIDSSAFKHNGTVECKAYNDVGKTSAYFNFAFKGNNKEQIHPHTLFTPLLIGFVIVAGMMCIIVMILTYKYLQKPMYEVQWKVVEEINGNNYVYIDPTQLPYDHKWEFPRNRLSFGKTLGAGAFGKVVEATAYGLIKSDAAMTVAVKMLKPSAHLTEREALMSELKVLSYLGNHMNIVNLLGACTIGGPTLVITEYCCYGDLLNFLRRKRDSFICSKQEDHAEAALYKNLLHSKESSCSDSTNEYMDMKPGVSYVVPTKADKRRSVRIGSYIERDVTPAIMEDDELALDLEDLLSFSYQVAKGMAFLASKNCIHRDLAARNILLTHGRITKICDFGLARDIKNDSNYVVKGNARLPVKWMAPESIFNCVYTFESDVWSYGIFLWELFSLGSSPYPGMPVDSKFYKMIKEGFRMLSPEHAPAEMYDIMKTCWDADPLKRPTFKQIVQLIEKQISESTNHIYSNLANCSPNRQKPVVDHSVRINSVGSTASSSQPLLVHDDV
FLT3-ITD, sequence (P36888 other isoform, or with tags, fused parts or gaps limits assumed, stated change not applied): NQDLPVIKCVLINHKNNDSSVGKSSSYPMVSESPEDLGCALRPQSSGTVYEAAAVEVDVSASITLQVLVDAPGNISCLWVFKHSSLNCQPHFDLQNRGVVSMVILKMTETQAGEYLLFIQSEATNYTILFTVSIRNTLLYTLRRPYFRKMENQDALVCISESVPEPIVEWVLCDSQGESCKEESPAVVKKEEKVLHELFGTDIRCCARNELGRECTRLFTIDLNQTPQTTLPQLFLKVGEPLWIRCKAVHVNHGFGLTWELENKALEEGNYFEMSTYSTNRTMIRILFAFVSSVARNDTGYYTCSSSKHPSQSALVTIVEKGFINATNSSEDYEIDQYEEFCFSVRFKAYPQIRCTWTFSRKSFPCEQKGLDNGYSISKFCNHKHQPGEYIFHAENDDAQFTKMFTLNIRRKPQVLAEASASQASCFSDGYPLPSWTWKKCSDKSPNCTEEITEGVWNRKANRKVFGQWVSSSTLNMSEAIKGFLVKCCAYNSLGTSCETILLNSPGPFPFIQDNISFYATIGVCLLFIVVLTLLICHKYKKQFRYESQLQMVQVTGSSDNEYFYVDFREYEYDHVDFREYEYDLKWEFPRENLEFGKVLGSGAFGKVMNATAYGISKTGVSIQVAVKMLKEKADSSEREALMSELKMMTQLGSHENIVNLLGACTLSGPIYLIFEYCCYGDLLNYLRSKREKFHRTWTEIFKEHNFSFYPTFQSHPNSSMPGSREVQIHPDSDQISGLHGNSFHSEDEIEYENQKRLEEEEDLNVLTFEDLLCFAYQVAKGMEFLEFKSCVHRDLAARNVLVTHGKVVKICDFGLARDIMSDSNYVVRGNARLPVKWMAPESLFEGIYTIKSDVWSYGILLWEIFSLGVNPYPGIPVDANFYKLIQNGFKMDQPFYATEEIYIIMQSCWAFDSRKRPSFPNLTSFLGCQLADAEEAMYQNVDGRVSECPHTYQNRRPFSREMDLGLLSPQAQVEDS

SMILES	Kd (KIT kinase)	IC50 (FLT3-ITD)	Kd (FLT3 kinase)
COc1cc2nc(C(N)=O)c(-c3ccc(CC(=O)Nc4cc(C5(C(F)(F)F)CC5)on4)c(F)c3)nc2cc1OC [Example 135, 3-[3-fluoro-4-[2-oxo-2-[[5-[1-(trifluoro-methyl)cyclopropyl]isoxazol-3-yl]amino]ethyl]phenyl]-6,7-dimethoxy-quinoxaline-2-carboxamide]	> 50 nM	> 50 nM	> 50 nM
COCCOc1cc2ncc(-c3ccc(CC(=O)Nc4cc(C5(C(F)(F)F)CC5)on4)c(F)c3)cc2cc1OC [Example 126, 2-[2-fluoro-4-[6-methoxy-7-(2-methoxyethoxy)-3-quinolyl]phenyl]-N-[5-[1-(trifluoromethyl)cyclo-propyl]isoxazol-3-yl]acetamide]	< 5 nM	< 10 nM	< 5 nM
COc1cc2nc(-c3ccc(CC(=O)Nc4cc(C5(C(F)(F)F)CC5)on4)c(F)c3)cnc2cc1O [Example 78, 2-(2-fluoro-4-(6-hydroxy-7-methoxyquinoxalin-2-yl)phenyl)-N-(5-(1-(trifluoromethyl)cyclopropyl)isoxazol-3-yl)acetamide]	< 5 nM	< 10 nM	< 5 nM
COc1cc2ncc(-c3ccc(CC(=O)Nc4cc(C5(C(F)(F)F)CC5)on4)c(F)c3)nc2cc1O [Example 157, 2-[2-fluoro-4-(7-hydroxy-6-methoxy-quinoxalin-2-yl)phenyl]-N-[5-[1-(trifluoro-methyl)cyclopropyl]isoxazol-3-yl]acetamide]	< 5 nM	< 10 nM	< 5 nM
CC(C)(c1cc(NC(=O)Cc2ccc(-c3cnc4[nH]nc(OCCOC(F)(F)F)c4c3)cc2F)no1)C(F)(F)F [Example 114, 2-[2-fluoro-4-[3-[2-(trifluoromethoxy)ethoxy]-1H-pyrazolo[3,4-b]pyridin-5-yl]phenyl]-N-[5-(2,2,2-trifluoro-1,1-dimethyl-ethyl)isoxazol-3-yl]acetamide]	5 to 20 nM	< 10 nM	< 5 nM
COc1cc2ncc(-c3ccc(CC(=O)Nc4cc(C(C)(C)C(F)(F)F)on4)c(F)c3)c(N)c2cc1OC [Example 143, 2-[4-(4-amino-6,7-dimethoxy-3-quinolyl)-2-fluoro-phenyl]-N-[5-(2,2,2-trifluoro-1,1-dimethyl-ethyl)isoxazol-3-yl]acetamide]	5 to 20 nM	10 to 20 nM	< 5 nM
COCCOc1cc2ncc(-c3ccc(CC(=O)Nc4cc(C(C)(C)C)nn4C)c(F)c3)nc2cc1OC [Example 162, N-(5-tert-butyl-2-methyl-pyrazol-3-yl)-2-[2-fluoro-4-[7-methoxy-6-(2-methoxyethoxy)quinoxalin-2-yl]phenyl]acetamide]	< 5 nM	< 10 nM	< 5 nM
COc1cc2nc(-c3ccc(CC(=O)Nc4cc(C5(C(F)(F)F)CC5)on4)c(F)c3)cnc2cc1OCCO [Example 131, 2-[2-fluoro-4-[6-(2-hydroxyethoxy)-7-methoxy-quinoxalin-2-yl]phenyl]-N-[5-[1-(trifluoromethyl)cyclo-propyl]isoxazol-3-yl]acetamide]	< 5 nM	< 10 nM	< 5 nM
CC(C)(C)c1cc(NC(=O)Cc2ccc(-c3cnc4[nH]c(C(=O)NCCS(C)(=O)=O)cc4c3)cc2)no1 [Example 68, 5-(4-(2-((5-(tert-butyl)isoxazol-3-yl)amino)-2-oxoethyl)phenyl)-N-(2-(methylsulfonyl)ethyl)-1H-pyrrolo[2,3-b]pyridine-2-carboxamide]	< 5 nM	< 10 nM	< 5 nM
COc1cc2ncc(-c3ccc(CC(=O)Nc4cc(C5(C(F)(F)F)CC5)on4)c(F)c3)nc2cc1OCCN(C)C [Example 158, 2-[4-[7-[2-(dimethylamino)ethoxy]-6-methoxy-quinoxalin-2-yl]-2-fluoro-phenyl]-N-[5-[1-(trifluoromethyl)cyclo-propyl]isoxazol-3-yl]acetamide]	< 5 nM	< 10 nM	< 5 nM
CCOc1cc2ncc(-c3ccc(CC(=O)Nc4cc(C5(C(F)(F)F)CC5)on4)c(F)c3)cc2cc1OC [Example 86, 2-(4-(7-ethoxy-6-methoxyquinolin-3-yl)-2-fluorophenyl)-N-(5-(1-(trifluoromethyl)cyclopropyl)isoxazol-3-yl)acetamide]	< 5 nM	< 10 nM	< 5 nM
COc1cc2cc(-c3ccc(CC(=O)Nc4cc(C5(C(F)(F)F)CC5)on4)cc3)cnc2cc1OC [Example 5, 2-(4-(6,7-dimethoxyquinolin-3-yl)phenyl)-N-(5-(1-(trifluoromethyl)cyclopropyl)isoxazol-3-yl)acetamide]	< 5 nM	< 10 nM	< 5 nM

Second part, the compound after the results:

Kd (KIT kinase)	IC50 (FLT3-ITD)	Kd (FLT3 kinase)	SMILES
< 5 nM	< 10 nM	< 5 nM	COc1cc2nc(-c3ccc(CC(=O)Nc4cc(C5(C(F)(F)F)CC5)on4)c(F)c3)cnc2cc1OC1CN(C)C1 [Example 90, 2-(2-fluoro-4-(7-methoxy-6-((1-methylazetidin-3-yl)oxy)quinoxalin-2-yl)phenyl)-N-(5-(1-(trifluoromethyl)cyclopropyl)isoxazol-3-yl)acetamide]
< 5 nM	< 10 nM	< 5 nM	COCCOc1cc2nc(-c3ccc(CC(=O)Nc4cc(C(C)(C)C(F)(F)F)on4)c(F)c3)cnc2cc1OC [Example 160, 2-[2-fluoro-4-[6-methoxy-7-(2-methoxy-ethoxy)quinoxalin-2-yl]phenyl]-N-[5-(2,2,2-trifluoro-1,1-dimethyl-ethyl)isoxazol-3-yl]acetamide]
< 5 nM	10 to 20 nM	< 5 nM	O=C(Cc1ccc(-c2cnc3[nH]c(C(=O)O)cc3c2)cc1F)Nc1cc(C2(C(F)(F)F)CC2)on1 [Example 106, 5-[3-fluoro-4-[2-oxo-2-[[5-[1-(trifluoromethyl)cyclo-propyl]isoxazol-3-yl]amino]ethyl]phenyl]-1H-pyrrolo[2,3-b]pyridine-2-carboxylic acid]
5 to 20 nM	< 10 nM	< 5 nM	COc1cc2nc(-c3ccc(CC(=O)Nc4cc(C5(C(F)(F)F)CC5)on4)c(F)c3)cnc2cc1OCCOC(=O)N(C)C [Example 136, 2-[2-[3-fluoro-4-[2-oxo-2-[[5-[1-(trifluoro-methyl)cyclopropyl]isoxazol-3-yl]amino]ethyl]phenyl]-7-methoxy-quinoxalin-6-yl]oxyethyl N,N-dimethylcarbamate]
> 50 nM	> 50 nM	5 to 20 nM	COc1cc2ncc(-c3ccc(CC(=O)Nc4cc(C(C)(C)C(F)(F)F)on4)c(F)c3)c(OC)c2cc1OC [Example 145, 2-[2-fluoro-4-(4,6,7-trimethoxy-3-quinolyl)phenyl]-N-[5-(2,2,2-trifluoro-1,1-dimethyl-ethyl)isoxazol-3-yl]acetamide]
< 5 nM	< 10 nM	< 5 nM	O=C(Cc1ccc(-c2cnc3cc4c(cc3n2)O[C@H](CO)CO4)cc1F)Nc1cc(C2(C(F)(F)F)CC2)on1 [Example 122, 2-[2-fluoro-4-[(3R)-3-(hydroxymethyl)-2,3-dihydro-[1,4]dioxino[2,3-g]quinoxalin-7-yl]phenyl]-N-[5-[1-(trifluoro-methyl)cyclopropyl]isoxazol-3-yl]acetamide]
< 5 nM	< 10 nM	< 5 nM	O=C(Cc1ccc(-c2cnc3nn4c(c3c2)OC(CO)C4)cc1F)Nc1cc(C2(C(F)(F)F)CC2)on1 (stereo not drawn) [Example 98, 2-[2-fluoro-4-[2-(hydroxy-methyl)-2,3-dihydro-oxazolo[3,4]pyrazolo[1,3-b]pyridin-8-yl]phenyl]-N-[5-[1-(trifluoro-methyl)cyclopropyl]isoxazol-3-yl]acetamide]
< 5 nM	< 10 nM	< 5 nM	CCN1CC(Oc2cc3ncc(-c4ccc(CC(=O)Nc5cc(C(C)(C)C(F)(F)F)on5)c(F)c4)nc3cc2OC)C1 [Example 149, 2-[4-[6-(1-ethylazetidin-3-yl)oxy-7-methoxy-quinoxalin-2-yl]-2-fluoro-phenyl]-N-[5-(2,2,2-trifluoro-1,1-dimethyl-ethyl)isoxazol-3-yl]acetamide]
< 5 nM	< 10 nM	< 5 nM	COCCOc1cc2ncc(-c3ccc(CC(=O)Nc4cc(C5(C(F)(F)F)CC5)on4)c(F)c3)nc2cc1OCCOC [Example 125, 2-[4-[6,7-bis(2-methoxyethoxy)quinoxalin-2-yl]-2-fluoro-phenyl]-N-[5-[1-(trifluoro-methyl)cyclopropyl]isoxazol-3-yl]acetamide]
5 to 20 nM	< 10 nM	< 5 nM	COc1ccc2ncc(-c3ccc(CC(=O)Nc4cc(C5(C(F)(F)F)CC5)on4)c(F)c3)nc2n1 [Example 155, 2-[2-fluoro-4-(6-methoxypyrido[2,3-b]pyrazin-3-yl)phenyl]-N-[5-[1-(trifluoromethyl)cyclo-propyl]isoxazol-3-yl]acetamide OR 2-[2-fluoro-4-(6-methoxypyrido[2,3-b]pyrazin-2-yl)phenyl]-N-[5-[1-(trifluoromethyl)cyclo-propyl]isoxazol-3-yl]acetamide]
< 5 nM	< 10 nM	< 5 nM	O=C(Cc1ccc(-c2cnc3[nH]nc(OCCF)c3c2)cc1F)Nc1cc(C2(C(F)(F)F)CC2)on1 [Example 104, 2-[2-fluoro-4-[3-(2-fluoroethoxy)-1H-pyrazolo[3,4-b]pyridin-5-yl]phenyl]-N-[5-[1-(trifluoro-methyl)cyclopropyl]isoxazol-3-yl]acetamide]
> 50 nM	> 50 nM	> 50 nM	CCOC(=O)c1nc2cc(OC)c(OC)cc2nc1-c1ccc(CC(=O)Nc2cc(C3(C(F)(F)F)CC3)on2)c(F)c1 [Example 132, ethyl 3-[3-fluoro-4-[2-oxo-2-[[5-[1-(trifluoro-methyl)cyclopropyl]isoxazol-3-yl]amino]ethyl]phenyl]-6,7-dimethoxy-quinoxaline-2-carboxylate]
